From patent US9051304B2, “Carboxamide compounds and their use as calpain inhibitors V” (AbbVie Deutschland GmbH & Co. KG, priority 2009, dated 2015)

How the values were obtained:
[1] = target: T1, cathepsin L isolated from human liver (Homo sapiens, UniProt P07711); assay: Cathepsin L enzyme inhibition, kinetic fluorescence assay; type: biochemical; conditions: selectivity ratio vs calpain
T1 construct: cathepsin L—isolated from human liver; purchased Calbiochem 219402; host or cells: human liver (tissue isolate)
T1 sequence (P07711 114-333): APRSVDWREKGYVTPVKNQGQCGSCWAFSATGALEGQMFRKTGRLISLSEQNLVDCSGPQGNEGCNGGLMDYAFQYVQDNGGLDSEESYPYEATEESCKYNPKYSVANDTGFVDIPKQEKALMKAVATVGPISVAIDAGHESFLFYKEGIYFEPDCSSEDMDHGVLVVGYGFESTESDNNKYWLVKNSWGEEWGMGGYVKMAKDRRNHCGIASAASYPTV
Description: (§1) I Enzyme Inhibition in vitro:
(§2) Testing for blockade of the corresponding enzymic activities was carried out by means of kinetic fluorescence assays (excitation 390 nm, emission 460 nm).
(§3) Apparent Ki values were calculated from the experimentally determined IC50 values by the Cheng-Prussoff relation assuming a reversible competitive enzyme inhibition.
1 nM cathepsin L—isolated from human liver (Calbiochem #219402), 2 μM Z-Phe-Arg-AMC (Bachem #I-1160) as substrate in 50 mM MES, 2 mM EDTA, 0.05% Brij 35, 2.5 mM L-cysteine, pH 6.0, room temperature.

[2] = target: T2, calpain-I isolated from human erythrocytes (Homo sapiens, UniProt P07384); assay: Calpain I enzyme inhibition, kinetic fluorescence assay; type: biochemical; conditions: apparent Ki from IC50 by Cheng-Prussoff; human erythrocyte calpain-I
T2 construct: calpain-I—isolated from human erythrocytes; purchased Calbiochem 208713; host or cells: human erythrocytes (tissue isolate)
T2 sequence (P07384 1-714): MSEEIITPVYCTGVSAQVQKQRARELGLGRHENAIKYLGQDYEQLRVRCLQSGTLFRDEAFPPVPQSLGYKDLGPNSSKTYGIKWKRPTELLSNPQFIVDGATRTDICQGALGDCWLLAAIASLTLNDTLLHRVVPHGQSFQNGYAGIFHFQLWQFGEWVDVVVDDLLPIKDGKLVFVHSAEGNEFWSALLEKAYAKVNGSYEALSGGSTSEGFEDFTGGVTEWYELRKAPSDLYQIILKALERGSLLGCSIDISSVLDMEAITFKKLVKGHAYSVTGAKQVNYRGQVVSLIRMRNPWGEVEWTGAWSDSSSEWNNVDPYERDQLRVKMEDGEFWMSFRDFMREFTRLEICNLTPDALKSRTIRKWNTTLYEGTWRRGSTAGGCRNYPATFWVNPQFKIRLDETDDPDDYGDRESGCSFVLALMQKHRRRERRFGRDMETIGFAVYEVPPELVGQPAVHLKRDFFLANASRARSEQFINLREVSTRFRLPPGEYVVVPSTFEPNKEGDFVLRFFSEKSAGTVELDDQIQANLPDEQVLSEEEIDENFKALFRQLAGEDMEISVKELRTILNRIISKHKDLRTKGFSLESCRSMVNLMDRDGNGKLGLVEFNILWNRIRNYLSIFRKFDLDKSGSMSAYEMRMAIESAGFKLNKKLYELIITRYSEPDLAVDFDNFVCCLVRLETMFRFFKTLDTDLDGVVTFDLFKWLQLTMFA
T2 sequence (P04632 1-268 partner): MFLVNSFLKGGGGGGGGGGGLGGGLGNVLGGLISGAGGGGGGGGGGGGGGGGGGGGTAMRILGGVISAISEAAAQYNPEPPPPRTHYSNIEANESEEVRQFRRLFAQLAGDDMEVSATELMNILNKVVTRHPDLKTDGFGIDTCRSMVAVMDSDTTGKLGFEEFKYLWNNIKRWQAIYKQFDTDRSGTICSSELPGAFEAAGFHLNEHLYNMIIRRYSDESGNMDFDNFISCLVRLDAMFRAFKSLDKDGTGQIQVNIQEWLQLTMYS
Description: as §1, §2, §3
20 nM calpain-I—isolated from human erythrocytes (Calbiochem #208713), 100 μM Suc-Leu-Tyr-AMC (Bachem #I-1355) as substrate in buffer with 62 mM imidazole, 0.3 mM CaCl2, 0.10% CHAPS, 0.05% BSA, 1 mM DTT at pH 7.3 and room temperature.

[3] = target: T3, recombinant human cathepsin S (Homo sapiens, UniProt P25774); assay: Cathepsin S enzyme inhibition, kinetic fluorescence assay; type: biochemical; conditions: selectivity ratio vs calpain
T3 construct: purchased Calbiochem 219343; host or cells: E. coli
T3 sequence (P25774 115-331): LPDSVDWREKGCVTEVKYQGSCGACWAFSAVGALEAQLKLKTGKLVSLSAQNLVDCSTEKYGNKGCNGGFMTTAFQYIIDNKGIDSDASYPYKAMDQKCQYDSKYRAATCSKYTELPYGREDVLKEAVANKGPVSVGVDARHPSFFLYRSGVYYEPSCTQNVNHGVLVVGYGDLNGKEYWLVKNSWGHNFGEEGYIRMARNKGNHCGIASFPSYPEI
Description: as §1, §2, §3
0.5 nM recombinant human cathepsin S from E. coli (Calbiochem #219343), 20 μM Z-Val-Val-Arg-AMC (Bachem #I-1540) as substrate in 50 mM MES, 2 mM EDTA, 0.05% Brij 35, 2.5 mM L-cysteine, pH 6.0, room temperature.

[4] = Cytosolic clearance in human liver cytosol; type: in vitro ADME; conditions: 0.5 μM compound, 1 mg/ml human liver cytosol, 37° C., pH 7.5; read-out: human cytCL (cytosolic clearance)
Description: (§4) III Assay for Determining Cytosolic Clearance of Compounds of Formula I: […]
(§5) For comparison purposes data measured with human liver cytosol were contrasted with those obtained with cynomolgus monkey liver cytosol.
(§6) 0.5 μM of a compound to be tested was incubated with 1 mg/ml of human liver cytosol as well as monkey liver cytosol at 37° C. in 0.5 M of phosphate buffer at pH 7.5 while shaking (commercial sources: female cynomolgus liver cytosol from Tebu bio, human liver cytosol from BDgentest).
(§7) In each case aliquots of 65 μl were taken after 0, 5, 10 and 15 min and transferred into wells of a wellplate which were immediately filled with 130 μl of ethanol to stop the reaction. The samples were kept frozen until analysis on a LC/MS/MS system (Applied Biosystems SCIEX 4000).
(§8) Read out parameters were the loss of parent compounds, from which the half life periods (T1/2) were calculated from.
(§9) To assess the stability of the compounds tested the clearance ranges were adjusted to the hepatic plasma flow of the different species according to the following scheme:
(§10) stable=from 0 to about ⅓ of the hepatic plasma flow;
(§11) moderately stable=from about ⅓ to about ⅔ of the hepatic plasma flow;
(§12) instable=more than ⅔ of the hepatic plasma flow.
(§13) Based on this adjustment the following qualifiers were assigned to evaluate the cytosolic stabilities of the compounds tested: […]

[5] = target: T4, cathepsin B isolated from human liver (Homo sapiens, UniProt P07858); assay: Cathepsin B enzyme inhibition, kinetic fluorescence assay; type: biochemical; conditions: selectivity ratio vs calpain
T4 construct: cathepsin B—isolated from human liver; purchased Calbiochem 219362; host or cells: human liver (tissue isolate)
Description: as §1, §2, §3
0.25 nM cathepsin B—isolated from human liver (Calbiochem #219362), 100 μM Z-Phe-Arg-AMC (Bachem #I-1160) as substrate 50 mM MES, 2 mM EDTA, 0.05% Brij 35, 2.5 mM L-cysteine, pH 6.0, room temperature.

[6] = Cytosolic clearance in cynomolgus monkey liver cytosol; type: in vitro ADME; conditions: female; 0.5 μM compound, 1 mg/ml cynomolgus monkey liver cytosol, 37° C., pH 7.5; read-out: cyno cytCL (cytosolic clearance)
Description: as §4, §5, §6, §7, §8, §9, §10, §11, §12, §13

[7] = target: T5, cathepsin K activated from recombinant human procathepsin K (Homo sapiens, UniProt P43235); assay: Cathepsin K enzyme inhibition, kinetic fluorescence assay; type: biochemical; conditions: selectivity ratio vs calpain
T5 construct: purchased Calbiochem 342001; host or cells: E. coli
T5 sequence (P43235 115-329): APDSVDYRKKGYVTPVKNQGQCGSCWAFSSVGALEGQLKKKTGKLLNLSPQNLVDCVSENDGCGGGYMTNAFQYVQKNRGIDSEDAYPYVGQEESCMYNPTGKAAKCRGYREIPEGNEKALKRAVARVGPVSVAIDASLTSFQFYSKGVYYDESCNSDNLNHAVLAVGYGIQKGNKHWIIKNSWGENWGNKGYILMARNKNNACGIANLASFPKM
Description: as §1, §2, §3
3 nM cathepsin K—activated from recombinant human procathepsin K from E. coli (Calbiochem #342001), 10 μM Z-Gly-Pro-Arg-AMC (Biomol #P-142) as substrate in 50 mM MES, 2 mM EDTA, 0.05% Brij 35, 2.5 mM L-cysteine, pH 6.0, room temperature.

Row | Structure (SMILES) | Sel cat. L (Ki(cathepsin L)/Ki(calpain) ratio) [1] | Ki [2] [nM] | Sel cat. S (Ki(cathepsin S)/Ki(calpain) ratio) [3] | cytosolic intrinsic clearance at 0.5 μM [4] [µL/min/mg] | Sel cat. B (Ki(cathepsin B)/Ki(calpain) ratio) [5] | cytosolic intrinsic clearance at 0.5 μM [6] [µL/min/mg] | Sel cat. K (Ki(cathepsin K)/Ki(calpain) ratio) [7] | Calpain activity (Ki(calpain)) [2]
1 | CCONC(=O)C(=O)C(Cc1ccccc1)NC(=O)c1cccnc1-n1ccc(-c2ccccc2)n1 (centres unmarked) [Example 7, N-(4-(Ethoxyamino)-3,4-dioxo-1-phenylbutan-2-yl)-2-(3-phenyl-1H-pyrazol-1-yl)nicotinamide] | ++ (++ means 10<Ki(cathepsin L)/Ki(calpain)≦50) | < 200 | +++ (+++ means a Ki(cathepsin S)/Ki(calpain) ratio of >50) | < 14 | ++ (++ means 4<Ki(cathepsin B)/Ki(calpain)≦10) | < 18 | + (+ means 2≦Ki(cathepsin K)/Ki(calpain)≦4) | 
2 | CC(C)(C)ONC(=O)C(=O)C(Cc1ccccc1)NC(=O)c1cccnc1-n1ccc(-c2ccccc2)n1 (centres unmarked) [Example 16, N-(4-{[(2-Methyl-2-propanyl)oxy]amino}-3,4-dioxo-1-phenyl-2-butanyl)-2-(3-phenyl-1H-pyrazol-1-yl)nicotinamide] | + (+ means 5≦Ki(cathepsin L)/Ki(calpain)≦10) | 300 to 600 | ++ (++ means 10<Ki(cathepsin S)/Ki(calpain)≦50) |  | +++ (+++ means a Ki(cathepsin B)/Ki(calpain) ratio of >10) |  | ∘ | 
3 | CC(C)(C)CONC(=O)C(=O)C(Cc1ccccc1)NC(=O)c1cccnc1-n1ccc(-c2ccccc2)n1 (centres unmarked) [Example 21, N-{4-[(2,2-Dimethylpropoxy)amino]-3,4-dioxo-1-phenyl-2-butanyl}-2-(3-phenyl-1H-pyrazol-1-yl)nicotinamide] | ∘ | 200 to 300 | + (+ means 5≦Ki(cathepsin S)/Ki(calpain)≦10) |  | + (+ means 2≦Ki(cathepsin B)/Ki(calpain)≦4) |  | ∘ | 
4 | CCONC(=O)C(=O)C(Cc1ccc(OC)cc1)NC(=O)c1cccnc1-n1ccc(-c2ccccc2)n1 (centres unmarked) [Example 24, N-[4-(Ethoxyamino)-1-(4-methoxyphenyl)-3,4-dioxo-2-butanyl]-2-(3-phenyl-1H-pyrazol-1-yl)nicotinamid] | ++ (++ means 10<Ki(cathepsin L)/Ki(calpain)≦50) | < 200 | ++ (++ means 10<Ki(cathepsin S)/Ki(calpain)≦50) |  | ++ (++ means 4<Ki(cathepsin B)/Ki(calpain)≦10) |  | + (+ means 2≦Ki(cathepsin K)/Ki(calpain)≦4) | 
5 | CCONC(=O)C(=O)C(Cc1ccccc1)NC(=O)[C@H]1CCC(=O)N1Cc1ccccc1 (stereo partly drawn) [Example 29, (2R)-1-benzyl-N-(4-(ethoxyamino)-3,4-dioxo-1-phenylbutan-2-yl)-5-oxopyrrolidine-2-carboxamide] | ++ (++ means 10<Ki(cathepsin L)/Ki(calpain)≦50) |  | ++ (++ means 10<Ki(cathepsin S)/Ki(calpain)≦50) |  | +++ (+++ means a Ki(cathepsin B)/Ki(calpain) ratio of >10) |  | ++ (++ means 4<Ki(cathepsin K)/Ki(calpain)≦10) | ∘
6 | O=C(NOCC1CC1)C(=O)C(Cc1ccccc1)NC(=O)[C@H]1CCC(=O)N1Cc1ccccc1 (stereo partly drawn) [Example 31, (2R)-1-benzyl-N-(4-(cyclopropylmethoxyamino)-3,4-dioxo-1-phenylbutan-2-yl)-5-oxopyrrolidine-2-carboxamide] | ∘ | < 200 | ++ (++ means 10<Ki(cathepsin S)/Ki(calpain)≦50) |  | + (+ means 2≦Ki(cathepsin B)/Ki(calpain)≦4) |  | ∘ | 
